In general, pIC50 refers to the negative decadic logarithm of the IC50, by convention in mol/L.

pIC50: −log10 of the molar value.

The target in the first assay is T1, calcium channel (Oryctolagus cuniculus, UniProt P15381).
T1 construct: from tissue; host or cells: rabbit heart membrane preparation
T1 sequence (P15381 whole entry, other chains not shown): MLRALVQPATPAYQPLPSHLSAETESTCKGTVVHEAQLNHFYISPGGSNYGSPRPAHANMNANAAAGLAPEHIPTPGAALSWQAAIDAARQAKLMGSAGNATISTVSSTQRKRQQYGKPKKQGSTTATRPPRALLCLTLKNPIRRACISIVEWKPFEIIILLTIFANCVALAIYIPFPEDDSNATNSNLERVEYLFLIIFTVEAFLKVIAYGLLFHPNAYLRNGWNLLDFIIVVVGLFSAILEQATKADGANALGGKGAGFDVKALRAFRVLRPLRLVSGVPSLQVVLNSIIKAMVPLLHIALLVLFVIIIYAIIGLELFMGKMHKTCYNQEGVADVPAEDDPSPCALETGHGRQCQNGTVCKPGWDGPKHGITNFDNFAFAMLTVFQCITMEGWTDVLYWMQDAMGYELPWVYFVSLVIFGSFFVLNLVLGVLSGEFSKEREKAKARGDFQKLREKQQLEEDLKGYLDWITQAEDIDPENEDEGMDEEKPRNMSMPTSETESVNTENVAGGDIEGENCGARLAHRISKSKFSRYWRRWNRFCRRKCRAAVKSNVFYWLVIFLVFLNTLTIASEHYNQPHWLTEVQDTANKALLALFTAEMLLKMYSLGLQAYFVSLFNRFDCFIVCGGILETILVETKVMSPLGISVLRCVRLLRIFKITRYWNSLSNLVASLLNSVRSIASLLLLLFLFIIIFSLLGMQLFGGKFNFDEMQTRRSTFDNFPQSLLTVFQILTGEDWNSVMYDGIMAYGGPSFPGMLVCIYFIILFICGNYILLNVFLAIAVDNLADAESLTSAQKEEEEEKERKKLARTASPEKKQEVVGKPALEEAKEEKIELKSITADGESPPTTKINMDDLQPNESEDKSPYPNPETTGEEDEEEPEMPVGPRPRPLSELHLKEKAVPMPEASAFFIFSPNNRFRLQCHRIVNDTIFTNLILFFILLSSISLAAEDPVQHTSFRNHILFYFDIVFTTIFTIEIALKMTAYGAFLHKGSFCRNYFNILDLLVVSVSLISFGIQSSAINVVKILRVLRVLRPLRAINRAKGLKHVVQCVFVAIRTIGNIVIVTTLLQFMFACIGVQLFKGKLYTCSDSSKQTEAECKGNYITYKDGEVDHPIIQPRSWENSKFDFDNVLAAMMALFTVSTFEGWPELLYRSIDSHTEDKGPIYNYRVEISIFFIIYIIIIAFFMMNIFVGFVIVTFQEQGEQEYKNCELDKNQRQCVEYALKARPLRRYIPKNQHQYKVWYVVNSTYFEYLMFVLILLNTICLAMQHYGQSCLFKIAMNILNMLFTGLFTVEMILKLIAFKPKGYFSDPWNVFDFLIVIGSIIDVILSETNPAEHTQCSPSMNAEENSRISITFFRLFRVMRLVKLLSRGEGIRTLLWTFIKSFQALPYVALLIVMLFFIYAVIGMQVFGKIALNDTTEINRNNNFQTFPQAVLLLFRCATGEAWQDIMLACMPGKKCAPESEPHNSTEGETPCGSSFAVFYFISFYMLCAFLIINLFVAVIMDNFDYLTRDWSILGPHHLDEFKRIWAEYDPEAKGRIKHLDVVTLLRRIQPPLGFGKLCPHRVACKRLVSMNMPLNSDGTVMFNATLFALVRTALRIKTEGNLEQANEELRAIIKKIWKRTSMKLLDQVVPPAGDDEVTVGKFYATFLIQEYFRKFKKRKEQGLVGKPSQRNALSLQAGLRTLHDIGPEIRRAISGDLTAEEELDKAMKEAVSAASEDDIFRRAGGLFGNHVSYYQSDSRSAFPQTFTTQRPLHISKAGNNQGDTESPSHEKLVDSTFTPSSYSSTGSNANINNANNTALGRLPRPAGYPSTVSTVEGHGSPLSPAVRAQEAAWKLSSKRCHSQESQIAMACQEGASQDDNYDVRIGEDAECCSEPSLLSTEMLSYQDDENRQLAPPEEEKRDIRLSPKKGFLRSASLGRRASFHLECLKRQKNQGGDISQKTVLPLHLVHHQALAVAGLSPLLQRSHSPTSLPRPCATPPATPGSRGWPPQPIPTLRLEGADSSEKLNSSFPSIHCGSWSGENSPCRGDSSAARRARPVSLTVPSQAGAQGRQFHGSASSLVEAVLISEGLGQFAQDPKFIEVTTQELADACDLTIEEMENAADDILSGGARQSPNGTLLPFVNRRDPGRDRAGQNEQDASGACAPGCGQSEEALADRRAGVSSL
T1 sequence (P13806 27-960 partner limits assumed, other chains not shown): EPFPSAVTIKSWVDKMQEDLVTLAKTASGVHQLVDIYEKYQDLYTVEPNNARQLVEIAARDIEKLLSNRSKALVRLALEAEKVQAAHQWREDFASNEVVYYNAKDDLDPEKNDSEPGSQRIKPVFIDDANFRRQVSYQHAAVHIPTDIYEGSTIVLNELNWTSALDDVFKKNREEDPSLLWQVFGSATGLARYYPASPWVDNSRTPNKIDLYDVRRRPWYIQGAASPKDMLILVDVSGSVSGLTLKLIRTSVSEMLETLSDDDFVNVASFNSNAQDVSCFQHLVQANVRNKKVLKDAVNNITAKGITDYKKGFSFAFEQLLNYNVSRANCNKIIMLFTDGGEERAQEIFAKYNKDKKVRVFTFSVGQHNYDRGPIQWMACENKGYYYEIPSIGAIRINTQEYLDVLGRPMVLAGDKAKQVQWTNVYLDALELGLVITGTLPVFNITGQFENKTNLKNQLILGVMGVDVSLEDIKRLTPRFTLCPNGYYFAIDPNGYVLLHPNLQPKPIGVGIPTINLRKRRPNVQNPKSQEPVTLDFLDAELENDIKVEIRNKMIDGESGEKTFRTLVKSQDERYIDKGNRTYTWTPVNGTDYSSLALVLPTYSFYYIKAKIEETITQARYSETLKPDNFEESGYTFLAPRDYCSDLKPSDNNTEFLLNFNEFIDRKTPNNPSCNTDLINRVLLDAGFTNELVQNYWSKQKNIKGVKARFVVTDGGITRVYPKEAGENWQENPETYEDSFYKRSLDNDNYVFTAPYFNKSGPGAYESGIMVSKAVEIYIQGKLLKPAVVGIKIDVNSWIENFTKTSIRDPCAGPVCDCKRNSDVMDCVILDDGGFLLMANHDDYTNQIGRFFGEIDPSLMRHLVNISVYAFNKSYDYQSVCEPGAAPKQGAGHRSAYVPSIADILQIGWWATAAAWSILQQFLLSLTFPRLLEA
T1 sequence (P13806 961-1106 partner limits assumed, other chains not shown): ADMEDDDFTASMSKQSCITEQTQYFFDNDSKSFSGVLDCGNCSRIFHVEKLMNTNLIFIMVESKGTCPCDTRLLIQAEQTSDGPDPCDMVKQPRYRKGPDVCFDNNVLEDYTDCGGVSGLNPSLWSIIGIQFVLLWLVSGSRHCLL
In words: Assay for Inhibition of Nitrendipine Binding (3H-nitrendipine, heart membranes). The settings on record: 3H-nitrendipine displacement, rabbit heart membranes; Tables 1-5. On the procedure:
Female, New Zealand white rabbits (1-2 kg) are sacrificed by cervical dislocation, and the heart is immediately removed, cleaned and chopped into small pieces. The tissue is homogenized in 5× times volume of 0.05M Hepes buffer, pH 7.4. The homogenate is centrifuged at 4000 g for 10 minutes, and the supernatant is re-centrifuged at 42,000×g for 90 minutes. The resulting membrane pellet is resuspended (0.7 ml/g weight) in 0.05M Hepes, pH 7.4 and stored at […] until used. Each tube of the binding assay contains ^3H-nitrendipine (0.05-0.50 nM), buffer, membranes (0.10 ml), and test compound in a total volume of 1.0 ml. After 90 minutes at 4° C., the bound nitrendipine is separated from the unbound by filtration on Whatman GF/C filters. After rinsing, the filters are dried and counted in a liquid scintillation counter.
Non-specific binding of ^3H-nitrendipine (that amount bound in the presence of excess unlabelled nitrendipine) is subtracted from the total bound to obtain specifically bound radiolabeled nitrendipine. The amount of specifically bound nitrendipine in the presence of a test compound is compared to that amount bound in the absence of a compound. A percent displacement (or inhibition) can then be calculated.
Turning to `C=C1CS(=O)(=O)C2=C(CS1(=O)=O)NC(C)=C(C(=O)OCCN(C)Cc1ccccc1)C2c1cccc(C(F)(F)F)c1F` (centres unmarked) [Compound 21, 5H-1,4-Dithiepino[6,5-b]pyridine-8-carboxylic acid, 9-[2-fluoro-3-(trifluoromethyl)phenyl]-2,3,6,9-tetrahydro-7-methyl-3-methylene-2-[methyl(phenylmethyl)amino]ethyl ester 1,1,4,4-tetraoxide], the pIC50 was 7.42.

Take `CC1=C(C(=O)OCCN(C)Cc2ccccc2)C(c2cccc(C(F)(F)F)c2F)C2=C(CS(=O)(=O)CS2(=O)=O)N1` (centres unmarked) [Compound 31, 4H-1,3-Dithiino[5,4-b]pyridine-7-carboxylic acid, 8-[2-fluoro-3-(trifluoromethyl)phenyl]-5,8-dihydro-6-methyl-2-[methyl(phenylmethyl)amino]ethyl ester 1,1,3,3-tetraoxide]: the pIC50 was 7.55.

Consider `COC(=O)C1=C(C)NC2=C(C1c1cccc(F)c1F)S(=O)(=O)CCS(=O)(=O)C2` (centres unmarked) [Compound 18, 5H-1,4-Dithiepino[6,5-b]pyridine-8-carboxylic acid, 9-(2,3-difluorophenyl)-2,3,6,9-tetrahydro-7-methyl-methyl ester 1,1,4,4-tetraoxide], for which the pIC50 is 7.17.

Turning to `COC(=O)C1=C(C)NC2=C(C1c1cccc(C(F)(F)F)c1F)S(=O)(=O)CC(CO)S(=O)(=O)C2` (centres unmarked) [Compound 22, 5H-1,4-Dithiepino[6,5-b]pyridine-8-carboxylic acid, 9-[2-fluoro-3-(trifluoromethyl)phenyl]-2,3,6,9-tetrahydro-3-(hydroxymethyl)-7-methyl-methyl ester 1,1,4,4-tetraoxide], the pIC50 is 6.71.

`CC1=C(C(=O)OCCN(C)Cc2ccccc2)C(c2ccccc2Cl)C2=C(CS(=O)(=O)CCS2(=O)=O)N1` (centres unmarked) [Compound 6, 5H-1,4-Dithiepino[6,5-b]pyridine-8-carboxylic acid, 9-(2-chlorophenyl)-2,3,6,9-tetrahydro-7-methyl-2-[methyl(phenylmethyl)amino]ethyl ester 1,1,4,4-tetraoxide]: the pIC50 was 7.35.

Consider `COC(=O)C1=C(C)NC2=C(C1c1cccc(C(F)(F)F)c1F)S(=O)(=O)CCS(=O)(=O)C2` (centres unmarked) [Compound 17, 5H-1,4-Dithiepino[6,5-b]pyridine-8-carboxylic acid, 9-[2-fluoro-3-(trifluoromethyl)phenyl]-2,3,6,9-tetrahydro-7-methyl-methyl ester 1,1,4,4-tetraoxide], for which the pIC50 is 7.70.

For `CC1=C(C(=O)OCCN(C)Cc2ccccc2)C(c2cccc(C(F)(F)F)c2F)C2=C(CS(=O)(=O)CCS2(=O)=O)N1` (centres unmarked) [Compound 7, 5H-1,4-Dithiepino[6,5-b]pyridine-8-carboxylic acid, 9-[2-fluoro-3-(trifluoromethyl)phenyl]-2,3,6,9-tetrahydro-7-methyl-2-[methyl(phenylmethyl)amino]ethyl ester 1,1,4,4-tetraoxide], the pIC50 was 7.74.

Take `CC1=C(C(=O)OCCN(C)Cc2ccccc2)C(c2cccc(C(F)(F)F)c2F)C2=C(CS(=O)(=O)CCCS2(=O)=O)N1` (centres unmarked) [Compound 28, 2H,6H-1,5-Dithiocino[3,2-b]pyridine-9-carboxylic acid, 10-[2-fluoro-3-(trifluoromethyl)phenyl]-3,4,7,10-tetrahydro-8-methyl-2-[methyl(phenylmethyl)amino]ethyl ester 1,1,5,5-tetraoxide]: the pIC50 is 7.28.

Turning to `CC1=C(C(=O)OCCN(C)Cc2ccccc2)C(c2c(O)cccc2Cl)C2=C(CS(=O)(=O)CCS2(=O)=O)N1` (centres unmarked) [Compound 4, 5H-1,4-Dithiepino[6,5-b]pyridine-8-carboxylic acid, 9-(2-chloro-6-hydroxyphenyl)-2,3,6,9-tetrahydro-7-methyl-2-[methyl(phenylmethyl)amino]ethyl ester 1,1,4,4-tetraoxide], the pIC50 is 6.41.

The assay is the same for the next values; noted with them: 3H-nitrendipine displacement, rabbit heart membranes; Tables 6-7.
Consider `CC1=C(C(=O)OCCOC(=O)C2CCCCC2)C(c2c(F)cccc2Cl)C2=C(CS(=O)(=O)CCS2(=O)=O)N1` (centres unmarked) [Compound 55], for which the pIC50 is 7.00.

As to `CCC(CC)C(=O)OCCOC(=O)C1=C(C)NC2=C(C1c1c(F)cccc1Cl)S(=O)(=O)CCS(=O)(=O)C2` (centres unmarked) [Compound 33], the pIC50 was 7.89.

For the molecule `CC1=C(C(=O)OCC(N)=O)C(c2c(F)cccc2Cl)C2=C(CS(=O)(=O)CCS2(=O)=O)N1` (centres unmarked) [Compound 93], the pIC50 is 5.16.

For the molecule `CC1=C(C(=O)OCCOC(=O)CN(C)Cc2ccccc2)C(c2c(F)cccc2Cl)C2=C(CS(=O)(=O)CCS2(=O)=O)N1` (centres unmarked) [Compound 47], the pIC50 was 7.30.

Regarding `CC1=C(C(=O)OCCC2CCOC2=O)C(c2c(F)cccc2Cl)C2=C(CS(=O)(=O)CCS2(=O)=O)N1` (centres unmarked) [Compound 85], the pIC50 is 5.77.

In the case of `CC1=C(C(=O)OCCN)C(c2c(F)cccc2Cl)C2=C(CS(=O)(=O)CCS2(=O)=O)N1` (centres unmarked) [Compound 91], the pIC50 is 5.32.

For `CCN(CC)C(=O)COC(=O)C1=C(C)NC2=C(C1c1c(F)cccc1Cl)S(=O)(=O)CCS(=O)(=O)C2` (centres unmarked) [Compound 90], the pIC50 is 5.37.

As to `CC1=C(C(=O)OCCOC(=O)c2ccccc2)C(c2c(F)cccc2Cl)C2=C(CS(=O)(=O)CCS2(=O)=O)N1` (centres unmarked) [Compound 51], the pIC50 was 7.21.

In the case of `CC1=C(C(=O)OCCOC(=O)c2ccc(OC(C)C)cc2)C(c2c(F)cccc2Cl)C2=C(CS(=O)(=O)CCCS2(=O)=O)N1` (centres unmarked) [Compound 99, 2H,6H-[1,5]dithiocino[3,2-b]pyridine-9-carboxylic acid, 10-(2-chloro-6-fluorophenyl)-3,4,7,10-tetrahydro-8-methyl-, 2-[[4-(1-methylethoxy)benzoyl]oxy]ethyl ester, 1,1,5,5-tetraoxide], the pIC50 is 7.40.

On to `CC1=C(C(=O)OCCCOC(=O)c2ccccc2)C(c2c(F)cccc2Cl)C2=C(CS(=O)(=O)CCS2(=O)=O)N1` (centres unmarked) [Compound 41, 7-methyl-9-[2-fluoro-6-chlorophenyl]-2,3,6,9-tetrahydro-1,1,4,4-tetraoxide 5H-1,4-Dithiepino[6,5-b]pyridine-8-carboxylic acid 3-benzoyloxypropyl ester], for which the pIC50 is 7.37.

For the molecule `CC1=C(C(=O)OCC(=O)Oc2ccccc2)C(c2c(F)cccc2Cl)C2=C(CS(=O)(=O)CCS2(=O)=O)N1` (centres unmarked) [Compound 67], the pIC50 was 6.47.

With `CC1=C(C(=O)OC2CCOC2=O)C(c2c(F)cccc2Cl)C2=C(CS(=O)(=O)CCS2(=O)=O)N1` (centres unmarked) [Compound 60], the pIC50 was 6.76.

On to `CC1=C(C(=O)OCCC2CCOC2=O)C(c2cccc(Cl)c2Cl)C2=C(CS(=O)(=O)CCS2(=O)=O)N1` (centres unmarked) [Compound 63], for which the pIC50 was 6.71.

Regarding `CC1=C(C(=O)OCCOC(=O)C2CCCCCC2)C(c2c(F)cccc2Cl)C2=C(CS(=O)(=O)CCS2(=O)=O)N1` (centres unmarked) [Compound 39, 5H-[1,4]dithiepino[6,5-b]pyridine-8-carboxylic acid, 9-(2-chloro-6-fluorophenyl)-2,3,6,9-tetrahydro-7-methyl-, 2-[(cycloheptylcarbonyl)oxy]ethyl ester, 1,1,4,4-tetraoxide], the pIC50 was 7.42.

Consider `CC1=C(C(=O)OCC(=O)OC(C)(C)C)C(c2c(F)cccc2Cl)C2=C(CS(=O)(=O)CCS2(=O)=O)N1` (centres unmarked) [Compound 69, 7-methyl-9-[2-fluoro-6-chlorophenyl]-2,3,6,9-tetrahydro-1,1,4,4-tetraoxide 5H-1,4-Dithiepino[6,5-b]pyridine-8-carboxylic acid 2-(1,1-dimethylethyloxy)-2-oxoethyl ester], for which the pIC50 is 6.45.

For `CC1=C(C(=O)OCCOC(=O)C(N)CCCCN)C(c2c(F)cccc2Cl)C2=C(CS(=O)(=O)CCS2(=O)=O)N1` (centres unmarked) [Compound 96], the pIC50 is 4.29.

On to `CC1=C(C(=O)OCC(=O)OCCN(C)Cc2ccccc2)C(c2c(F)cccc2Cl)C2=C(CS(=O)(=O)CCS2(=O)=O)N1` (centres unmarked) [Compound 74, 7-methyl-9-[2-fluoro-6-chlorophenyl]-2,3,6,9-tetrahydro-1,1,4,4-tetraoxide 5H-1,4-Dithiepino[6,5-b]pyridine-8-carboxylic acid carboxy-2-(1-N-methylbenzylamine)ethyl ester], for which the pIC50 is 6.38.

As for `CC(=O)OCCOC(=O)C1=C(C)NC2=C(C1c1c(F)cccc1Cl)S(=O)(=O)CCS(=O)(=O)C2` (centres unmarked) [Compound 80], the pIC50 is 6.05.

As for `CC1=C(C(=O)OCC(=O)OCCc2ccccc2)C(c2c(F)cccc2Cl)C2=C(CS(=O)(=O)CCS2(=O)=O)N1` (centres unmarked) [Compound 59], the pIC50 is 6.81.

As to `CC1=C(C(=O)OCC(=O)OCc2ccccc2)C(c2c(F)cccc2Cl)C2=C(CS(=O)(=O)CCS2(=O)=O)N1` (centres unmarked) [Compound 66], the pIC50 was 6.55.

As to `CC1=C(C(=O)OCCOC(=O)c2ccc(OC(C)C)cc2)C(c2c(F)cccc2Cl)C2=C(CS(=O)(=O)CCS2(=O)=O)N1` (centres unmarked) [Compound 35, 5H-[1,4]dithiepino[6,5-b]pyridine-8-carboxylic acid, 9-(2-chloro-6-fluorophenyl)-2,3,6,9-tetrahydro-7-methyl-, 2-[[4-(1-methylethoxy)benzoyl]oxy]ethyl ester, 1,1,4,4-tetraoxide], the pIC50 was 7.70.

`CC1=C(C(=O)OCCOC(=O)c2ccc3ccccc3c2)C(c2c(F)cccc2Cl)C2=C(CS(=O)(=O)CCS2(=O)=O)N1` (centres unmarked) [Compound 46]: the pIC50 is 7.30.

For the molecule `COc1cccc(C(=O)OCCOC(=O)C2=C(C)NC3=C(C2c2c(F)cccc2Cl)S(=O)(=O)CCS(=O)(=O)C3)c1` (centres unmarked) [Compound 40], the pIC50 was 7.39.

(Values after US20020026051A1, “Dithiepino [6,5-b]pyridines, and related compositions and methods” (priority 1999, published 2002).)
